Data: patent US6329390A, “5-Bicycloindole compounds” (NPS Allelix Corp., priority 1998, dated 2001)

Legend:
5-HT1D receptor = biological target: T1, 5-HT1D receptor (Homo sapiens, UniProt P28221); test: Binding affinity, inhibition of 3H-serotonin binding to membranes of cells expressing the 5-HT1D receptor; conditions: for inhibition at 0.1 µM: 100 nM of test compound, 3H-serotonin 1 nM, 60 minute incubation at 22° C., read-out: affinity for the 5-HT1D receptor: amount (in percent) of binding of the radioligand that is inhibited; for binding at the 5-HT1D receptor (in words): at a concentration of 100 nM
T1 construct: expressed in transfected cells
T1 sequence (P28221 whole entry): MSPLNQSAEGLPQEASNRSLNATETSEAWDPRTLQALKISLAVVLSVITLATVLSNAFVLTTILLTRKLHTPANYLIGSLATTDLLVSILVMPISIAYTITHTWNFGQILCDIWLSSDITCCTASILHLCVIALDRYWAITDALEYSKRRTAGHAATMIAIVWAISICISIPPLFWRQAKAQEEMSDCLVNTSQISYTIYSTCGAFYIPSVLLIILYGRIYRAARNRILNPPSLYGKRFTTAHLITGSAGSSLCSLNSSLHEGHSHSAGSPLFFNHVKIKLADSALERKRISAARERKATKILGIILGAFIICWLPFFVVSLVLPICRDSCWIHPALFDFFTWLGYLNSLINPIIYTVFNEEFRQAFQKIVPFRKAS
Experimental: (§1) Selected compounds of the previous examples, as well as reference compounds were evaluated for binding affinity using cell types receptive specifically to 5-HT1D and 5-HT1B ligands. The assay protocol generally entailed the incubation of membranes prepared f cells expressing the 5-HT1D or 5-HT1B subtype of 5-HT receptors with ^3 H serotonin (1 nM for 5-HT1 D and 2.5 nM for 5-HT1B). Specific concentrations of the test compound were incubated with the radioligand and the membrane homogenates prepared from the recombinant cells. After a 60 minute incubation at 22° C., the incubation was terminated by vacuum filtration. The filters were washed with buffer and counted for radioactivity using liquid scintillation spectroscopy. The affinity of the test compound for the 5-HT1D receptor is expressed as the amount (in percent) of binding of the radioligand that is inhibited in the presence of 100 nM of test compound. A greater percent inhibition indicates greater affinity for the 5-HT1D receptor.

5-HT1B receptor = biological target: T2, 5-HT1B receptor (Homo sapiens, UniProt P28222); test: Binding affinity, inhibition of 3H-serotonin binding to membranes of cells expressing the 5-HT1B receptor; conditions: for binding at the 5-HT1B receptor (in words): at a concentration of 100 nM; for inhibition at 0.1 µM: 100 nM of test compound, 3H-serotonin 2.5 nM, 60 minute incubation at 22° C., read-out: affinity for the 5-HT1B receptor (percent inhibition of radioligand binding)
T2 construct: expressed in transfected cells
T2 sequence (P28222 whole entry): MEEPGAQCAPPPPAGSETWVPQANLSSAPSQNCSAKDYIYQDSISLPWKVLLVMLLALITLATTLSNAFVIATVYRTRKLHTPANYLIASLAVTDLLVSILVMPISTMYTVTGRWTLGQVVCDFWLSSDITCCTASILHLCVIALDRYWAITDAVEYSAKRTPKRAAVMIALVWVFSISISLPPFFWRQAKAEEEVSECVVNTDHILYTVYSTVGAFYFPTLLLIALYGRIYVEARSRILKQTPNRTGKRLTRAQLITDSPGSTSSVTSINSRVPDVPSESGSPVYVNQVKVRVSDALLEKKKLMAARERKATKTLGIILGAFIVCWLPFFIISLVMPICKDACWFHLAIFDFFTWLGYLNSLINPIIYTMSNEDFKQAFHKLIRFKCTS
Experimental: as §1

Row | Structure (SMILES) | inhibition at 0.1 µM (5-HT1D receptor) | binding at the 5-HT1D receptor (in words) (5-HT1D receptor) | binding at the 5-HT1B receptor (in words) (5-HT1B receptor) | inhibition at 0.1 µM (5-HT1B receptor)
1 | CN(C)CCc1c[nH]c2ccc(C3(O)CCN4CCCC4C3)cc12 (single isomer, unassigned) [Example 6c, 5-[(7-R or S)(8a-R,S)-7-Hydroxyoctahydroindolizin-7-yl]-3-[2-(N,N-dimethylamino)ethyl]indole] | > 90% | – | – | –
2 | CN1CCC[C@H]1Cc1c[nH]c2ccc(C3CCN4CCCC4C3)cc12 (single isomer, unassigned) [Example 8a, 5-[(7R or 7S)(8a-R,S)-Octahydroindolizin-7-yl]-3-{[(2S)-N-methylpyrrolidin-2-yl]methyl}-1 H-indole] | – | little, if any, binding | little, if any, binding | –
3 | CN1CCC[C@H]1Cc1c[nH]c2ccc(C3CCN4CCCC4C3)cc12 (single isomer, unassigned) [Example 8b, 5-[(7R or 7S)(8a-R,S)-Octahydroindolizin-7-yl] 3-{[(2S)-N-methylpyrrolidin-2-yl]methyl}-1 H-indole] | – | little, if any, binding | little, if any, binding | –
4 | CN1CCC[C@H]1Cc1c[nH]c2ccc(C3(O)CCN4CCCC4C3)cc12 (stereo partly drawn) [Example 6a, 5-[(7-R,S)(8a-R,S)-7-Hydroxyoctahydroindolizin-7-yI]-3-{[(2S)-N-methylpyrrolidin-2-yl]methyl}-1 H-indole] | – | little, if any, binding | little, if any, binding | –
5 | CN1CCC[C@@H]1Cc1c[nH]c2ccc(C3(O)CCN4CCCC4C3)cc12 (stereo partly drawn) [Example 6b, 5-[(7-R,S)(8a-R,S)-7-Hydroxyoctahydroindolizin-7-yl]-3-{[(2R)-N-methylpyrrolidin-2-yl]methyl}-1H-indole] | – | – | – | < 30%
6 | CN1CCC[C@H]1Cc1c[nH]c2ccc(C3=CC4CCCN4CC3)cc12 (stereo partly drawn) [Example 7a, 5-[(8a-R,S)-1,2,3,5,6,8a-Hexahydroindolizin-7-yl]-3-{[(2S)-N-methylpyrrolidin-2-yl]methyl}-1 H-indole] | – | little, if any, binding | little, if any, binding | –
7 | CN1CCC[C@H]1Cc1c[nH]c2ccc(C3=CCN4CCCC4C3)cc12 (stereo partly drawn) [Example 7b, 5-[(8a-R,S)-1,2,3,5,8,8a-Hexahydroindolizin-7-yl]-3-{[(2S)-N-methylpyrrolidin-2-yl]methyl}-1 H-indole] | – | little, if any, binding | little, if any, binding | –
8 | CN1CCC[C@@H]1Cc1c[nH]c2ccc(C3=CCN4CCCC4C3)cc12 (stereo partly drawn) [Example 7d, 5-[(8a-R,S)-1,2,3,5,8,8a-Hexahydroindolizin-7-yl]-3-{[(2R)-N-methylpyrrolidin-2-yl]methyl}-1H-indole] | > 90% | – | – | –
9 | CN1CCC[C@@H]1Cc1c[nH]c2ccc(C3CCN4CCCC4C3)cc12 (stereo partly drawn) [Example 8c, 5-[(7-R,S)(8a-R,S)-Octahydroindolizin-7-yl]- -{[(2R)-N-methylpyrrolidin-2-yl]methyl}-1H-indole] | – | – | – | < 30%
